The text below walks through data of patent publication US20040235784A1, “Combination preparations of 3-n-formylhydroxylaminopropyl phosphonic acid derivatives or 3-n-acetylhydroxylaminopropyl phosphonic acid derivatives combined with specific pharmaceutical active agents” (priority 2000, published 2004).

In the assay the test system is Plasmodium falciparum strains Dd2, 3D7 and HB3. The assay can be described thus: Sensitivity of Plasmodium falciparum to fosmidomycin in combination with different compounds, semi-automatic test by [3H]-hypoxanthin incorporation into parasite DNA. Format: cell-based. Particulars: drug in combination with fosmidomycin, sum FIC <1 synergism, >1 antagonism, =1 addition. The procedure: The IC50-values of fosmidomycin and the respective combination partner were determined for the single compounds and in different ratios of mixture on microtitreplates. The results were defined as sum of fractional inhibitory concentration (sum fractional inhibitory concentration, FIC):
sum FIC=IC50 of fosmidomycin in mixture/IC50 of fosmidomycin alone+IC50 of the combination partners in mixture/IC50 of combination partner alone
Sum FIC-values <1 represent synergism, values >1 antargonism and values=1 addition.

As for `CC[C@H]1OC(=O)[C@H](C)[C@@H](O[C@H]2C[C@@](C)(OC)[C@@H](O)[C@H](C)O2)[C@H](C)[C@@H](O[C@@H]2O[C@H](C)C[C@H](N(C)C)[C@H]2O)[C@](C)(O)C[C@@H](C)CN(C)[C@H](C)[C@@H](O)[C@]1(C)O` [azithromycin], the “sum FIC” value is 0.74 (P. falciparum strain 3D7), 0.86 (P. falciparum strain Dd2) and 0.85 (P. falciparum strain HB3).
As to `CCCCN(CCCC)CC(O)c1cc(Cl)cc2c1-c1ccc(Cl)cc1/C2=C/c1ccc(Cl)cc1` (stereo not drawn) [lumefantrin], the “sum FIC” value (P. falciparum strain 3D7) is given as 1.21, the “sum FIC” value (P. falciparum strain Dd2) turned out to be 1.20 and the “sum FIC” value (P. falciparum strain HB3) turned out to be 1.08.
